According to US11103526B2, “Methods for treatment using small molecule potassium-sparing diuretics and natriuretics” (University of Pittsburgh—Of the Commonwealth System of …, priority 2016, dated 2021):

Legend:
[1] = tested on: obese Zucker Diabetic Sprague Dawley rats (ZDSD); test: Long-term MABP in obese Zucker Diabetic Sprague Dawley rats; format: in vivo; details: 10 mg/kg/day in drinking water; also with 1% salt and diabetogenic diet
Source text: This example describes the long-term effects of 8-aminoguanine (FIG. 14A) and 8-aminoguanosine (FIG. 14B) on mean arterial blood pressure (MABP) in obese Zucker Diabetic Sprague Dawley rats (ZDSD). Obese ZDSD are a recently developed model (developed by PreClinOmics) of metabolic syndrome that have a mild elevation of MABP and have dyslipidemia, diabetes, and obesity. All animals were instrumented for long-term measurement of MABP by radiotelemetry as previously described (Jackson E K et al., Hypertension, 65:238-249, 2015). Group 1 ZDSD received only normal drinking water, whereas Group 2 received normal drinking water for 7 days and then were provided drinking water containing 8-aminoguanine or 8-aminoguanosine (10 mg/kg/day) for the remainder of the study. The experiment was divided into three phases (indicated by the boxes). During phase 1, no other treatments were provided. During phase 2, all animals received 1% salt (NaCl) in their drinking water. During phase 3, all animals were provided (in addition to 1% salt in the drinking water) a diabetogenic diet to worsen diabetes. The numbers in each box are the average MABP in Group 2 versus Group 1 during the time period indicated by the box. P-values comparing Group 2 versus Group 1 during each phase of the experiment are also provided.

[2] = tested on: spontaneously hypertensive rats (SHR); test: Long-term MABP in spontaneously hypertensive rats; format: in vivo; details: 5 mg/kg/day in drinking water; significant during weeks 2-5
Source text: This example describes the long-term effects of 8-aminoguanine (FIGS. 12A-12B) and 8-aminoguanosine (FIGS. 13A-13B) on mean arterial blood pressure (MABP) in spontaneously hypertensive rats (SHR). SHR are a well-established animal model of genetic hypertension that is not salt sensitive. All animals were instrumented for long-term measurement of MABP by radiotelemetry as previously described (Jackson E K et al., Hypertension, 65:238-249, 2015). Group 1 SHR received only normal drinking water; whereas Group 2 received normal drinking water for 7 days, and then were provided drinking water containing 8-aminoguanine or 8-aminoguanosine (5 mg/kg/day) for the remainder of the study.

anesthetized rats [3] = test: Protocol 3: intrarenal artery infusion, ipsilateral versus contralateral kidney (Example 13); format: in vivo, male Sprague-Dawley rats; details: for MABP / renal blood flow (RBF) / urinary excretion of glucose, ipsilateral versus contralateral kidney / urinary excretion of potassium, ipsilateral versus contralateral kidney / urinary excretion of sodium, ipsilateral versus contralateral kidney / urine volume, ipsilateral versus contralateral kidney: intrarenal artery infusion 0.1, 0.3 and 1 μmoles/kg/min; for urinary excretion of glucose, ipsilateral versus contralateral kidney / urinary excretion of potassium, ipsilateral versus contralateral kidney / urinary excretion of sodium, ipsilateral versus contralateral kidney / urine volume, ipsilateral versus contralateral kidney: same time period
Experimental: Protocol 3. Rats were prepared similar to the Protocol 1 description, but with a few additions. For this protocol, PE-10 cannulas were inserted into both the left and right ureters for simultaneous urine collection from both kidneys. A 1 mm transit-time flow probe was also positioned on the left renal artery and connected to a flowmeter (model T-206, Transonic Systems, Inc., Ithaca, N.Y.) to continuously measure renal blood flow (RBF). As placing a flow probe on left renal artery partially denervates the kidney, both kidneys were denervated to ensure similar conditions for both kidneys. Finally, a 30-gauge needle was inserted into the lumen of the left renal artery, and an infusion of 0.9% saline at 50 μl/min was initiated.
After stabilization for one hour, urine was collected from both kidneys for 15 minutes (for urine volume, sodium, potassium, and glucose), and MABP as well as HR were time averaged during this period. In addition, RBF was recorded 5, 10, and 15 minutes into the 15-minute urine collection period and averaged. Next, the rats received an infusion into the left renal artery of 8-aminoguanine or 8-aminoguanosine at 0.1 μmoles/kg/min and 50 μl/min or of vehicle at 50 μl/min. After 10 minutes, urine was again collected for 15 minutes, and all measurements were repeated. In rats receiving 8-aminoguanine or 8-aminoguanosine, the dose of these compounds was increased to 0.3 μmoles/kg/min. After 10 minutes, urine was again collected for 15 minutes, and all measurements were repeated. The procedure was repeated once more after the dose of 8-aminoguanosine or 8-aminoguanine was increased to 1 μmole/kg/min. Sodium, potassium, and glucose were measured in all urine samples as described in Protocol 1.
Increasing doses (0, 0.1, 0.3, and 1.0 μmoles/kg/min) of 8-aminoguanosine and 8-aminoguanine were infused into the left renal artery of anesthetized rats, while MABP and RBF were monitored. The urine volume and urinary excretion of sodium, potassium, and glucose were also measured from both the infused (treated; ipsilateral) and non-infused (within animal control; contralateral) kidneys. A control group was also included with the vehicle alone infused into the left kidney.

anesthetized rats [4] = test: Acute cardiovascular and renal effects of an intravenous bolus in anesthetized rats (Example 1); format: in vivo, male Sprague-Dawley rats; details: 33.5 μmoles/kg intravenous bolus; for urine volume increase: Period 3 (85-115 min) compared with Period 1 (0-30 min); for glucose excretion increase / potassium excretion decrease / sodium excretion increase: Period 3 compared with Period 1
Experimental: Animals. This study employed male Sprague-Dawley rats (Charles River; Wilmington, Mass.) that were approximately 16 weeks old. The Institutional Animal Care and Use Committee approved all procedures.
The rats were anesthetized with Inactin (90 mg/kg, i.p.) and placed on an isothermal pad, and body temperature was monitored with a rectal probe thermometer and maintained at 37° C. with a heat lamp. […] A PE-50 cannula was inserted into the jugular vein, and an infusion of 0.9% saline at 25 μl/min was initiated. A PE-10 tubing was placed in the left ureter for urine collection. […] The dose was selected based on preliminary experiments with 8-aminoguanosine. […] Each group of rats (n of at least 6) received only one treatment. Ten minutes after the test agents were administered, urine was collected for another 30 minutes (Period 2: […] into the protocol).
Statistics. Absolute values are presented as the mean±SEM. Fold-increases were calculated as follows: Period 3 value÷Period 1 value. Statistical analyses were performed using analysis of variance (ANOVA) followed by Fisher's Least Significant Difference (LSD) test if the overall effects or interactions in the ANOVA were significant. P<0.05 was considered statistically significant.

Structure (SMILES)	MABP in metabolic syndrome (obese ZDSD) [1]	MABP in SHR [2]	MABP (anesthetized rats [3])	renal blood flow (RBF) (anesthetized rats [3])	urinary excretion of glucose, ipsilateral versus contralateral kidney (anesthetized rats [3])	urinary excretion of potassium, ipsilateral versus contralateral kidney (anesthetized rats [3])	urinary excretion of sodium, ipsilateral versus contralateral kidney (anesthetized rats [3])	urine volume, ipsilateral versus contralateral kidney (anesthetized rats [3])	urine, sodium, and glucose excretion by the contralateral kidney (anesthetized rats [3]; intrarenal artery infusion at 1 μmole/kg/min, compared with the basal level)	excretion of urine, sodium, or glucose by the contralateral kidney (anesthetized rats [3]; intrarenal artery infusion at 0.1 and 0.3 μmoles/kg/min)	effect on heart rate (HR) (anesthetized rats [4])	effect on mean arterial blood pressure (MABP) (anesthetized rats [4])	effect on mesenteric blood flow (MBF) (anesthetized rats [4])	effect on renal blood flow (RBF) (anesthetized rats [4])	urine volume increase (anesthetized rats [4])	glucose excretion increase (anesthetized rats [4])	potassium excretion decrease (anesthetized rats [4])	sodium excretion increase (anesthetized rats [4])
Nc1nc2[nH]c(N)nc2c(=O)[nH]1 [8-aminoguanine, 8-Aminoguanine]	decrease MABP	antihypertensive	did not affect	did not affect	significantly higher	did not differ significantly	significantly higher	significantly higher	slightly increased	no effect	did not affect	did not affect	did not affect	did not affect	3.6 fold	12.2 fold	71.0%	17.2 fold
Nc1nc2c(nc(N)n2[C@@H]2O[C@H](CO)[C@@H](O)[C@H]2O)c(=O)[nH]1 [8-aminoguanosine, 8-Aminoguanosine]	decrease MABP	antihypertensive	did not affect	did not affect	no significant differences	significantly lower	no significant differences	no significant differences	–	–	did not affect	did not affect	modestly increased	decreased	4.2 fold	12.1 fold	69.1%	26.6 fold
